Measurements from PubChem BioAssay AID1259407 (Chemical Carcinogenesis Research Information System (CCRIS), 2018).
Calls of active or inactive are those of the source. The rule behind the calls is not given here.

System: CCRIS mutagenicity, Ames/micronucleus/aberration tests
Assay: CCRIS mutagenicity studies
[1] = Test System: AMES SALMONELLA TYPHIMURIUM, Strain/Indicator: TA100, Metabolic Activation: RAT, LIVER, S-9, AROCLOR 1254, Method: PREINCUBATION
[2] = Test System: AMES SALMONELLA TYPHIMURIUM, Strain/Indicator: TA98, Metabolic Activation: NONE, Method: STANDARD PLATE
[3] = Test System: AMES SALMONELLA TYPHIMURIUM, Strain/Indicator: TA100, Metabolic Activation: NONE, Method: STANDARD PLATE

`O=NN1CCOCC1` was tested, and the mutagenic call (End Point: IN VITRO CHROMOSOMAL ABERRATIONS, Test System: HEPG2 HEPATOMA (HUMAN), Metabolic Activation: NONE) was “active; positive”, the mutagenic call (End Point: IN VITRO CHROMOSOMAL ABERRATIONS, Test System: V79 CELLS, Metabolic Activation: NONE) was “active; positive” and the mutagenic call (End Point: IN VITRO CHROMOSOMAL ABERRATIONS, Test System: VH10 CELLS (HUMAN), Metabolic Activation: NONE) was “inactive; negative”. The mutagenic call (Test System: AMES SALMONELLA TYPHIMURIUM, Strain/Indicator: TA98, Metabolic Activation: HAMSTER, LIVER, S-9, AROCLOR 1254 (30%), Method: PREINCUBATION) was “inactive; negative”, the mutagenic call (Test System: AMES SALMONELLA TYPHIMURIUM, Strain/Indicator: TA98, Metabolic Activation: NONE, Method: PREINCUBATION) was “inactive; negative” and the mutagenic call (Test System: AMES SALMONELLA TYPHIMURIUM, Strain/Indicator: TA98, Metabolic Activation: RAT, LIVER, S-9, AROCLOR 1254 (30%), Method: PREINCUBATION) was “inactive; negative”. For the same molecule, the mutagenic call (Test System: AMES SALMONELLA TYPHIMURIUM, Strain/Indicator: TA98, Metabolic Activation: S-9, Method: PREINCUBATION) was “inactive; negative”, the mutagenic call (Test System: AMES SALMONELLA TYPHIMURIUM, Strain/Indicator: TA100, Metabolic Activation: HAMSTER, LIVER, S-9, AROCLOR 1254 (30%), Method: PREINCUBATION) was “active; positive” and the mutagenic call (Test System: AMES SALMONELLA TYPHIMURIUM, Strain/Indicator: TA100, Metabolic Activation: NONE, Method: PREINCUBATION) was “inactive; negative”. For the same molecule, the mutagenic call (Test System: AMES SALMONELLA TYPHIMURIUM, Strain/Indicator: TA100, Metabolic Activation: RAT, LIVER, S-9, AROCLOR 1254 (30%), Method: PREINCUBATION) was “active; positive”, the mutagenic call [1] was “active; positive” and the mutagenic call (Test System: AMES SALMONELLA TYPHIMURIUM, Strain/Indicator: TA100, Metabolic Activation: S-9, Method: PREINCUBATION) was “active; positive”. The mutagenic call (Test System: AMES SALMONELLA TYPHIMURIUM, Strain/Indicator: TA100, Metabolic Activation: TOBACCO CELLS, Method: PREINCUBATION) was “inactive; negative”, the mutagenic call (Test System: AMES SALMONELLA TYPHIMURIUM, Strain/Indicator: TA104, Metabolic Activation: RAT, LIVER, S-9, AROCLOR 1254, Method: PREINCUBATION) was “active; positive” and the mutagenic call (Test System: AMES SALMONELLA TYPHIMURIUM, Strain/Indicator: TA1530, Metabolic Activation: RAT, LIVER, S-9, Method: STANDARD PLATE) was “active; positive”. The mutagenic call (Test System: AMES SALMONELLA TYPHIMURIUM, Strain/Indicator: TA1535, Metabolic Activation: NONE, Method: PREINCUBATION) was “inactive; negative”, the mutagenic call (Test System: AMES SALMONELLA TYPHIMURIUM, Strain/Indicator: TA1535, Metabolic Activation: RAT, LIVER, HEPATOCYTES, Method: PREINCUBATION) was “active; positive” and the mutagenic call (Test System: AMES SALMONELLA TYPHIMURIUM, Strain/Indicator: TA1535, Metabolic Activation: RAT, LIVER, S-9, AROCLOR 1254, Method: PREINCUBATION) was “active; positive”. The mutagenic call (Test System: AMES SALMONELLA TYPHIMURIUM, Strain/Indicator: TA1535, Metabolic Activation: RAT, LIVER, S-9, AROCLOR, Method: PREINCUBATION) was “active; positive”, the mutagenic call (Test System: AMES SALMONELLA TYPHIMURIUM, Strain/Indicator: TA1535, Metabolic Activation: RAT, LIVER, S-9, SODIUM PHENOBARBITONE, Method: PREINCUBATION) was “active; positive” and the mutagenic call (Test System: AMES SALMONELLA TYPHIMURIUM, Strain/Indicator: TA1535, Metabolic Activation: RAT, LIVER, S-9, Method: PREINCUBATION) was “active; positive”. For the same molecule, the mutagenic call (Test System: AMES SALMONELLA TYPHIMURIUM, Strain/Indicator: TA1975, Metabolic Activation: RAT, LIVER, S-9, AROCLOR 1254, Method: PREINCUBATION) was “active; positive”, the mutagenic call (Test System: CHINESE HAMSTER V-79, Strain/Indicator: V-79/8-AZAGUANINE, Metabolic Activation: RAT, LIVER, S-15, PHENOBARBITAL, Method: STANDARD PLATE) was “active; positive” and the mutagenic call (Test System: UDS RODENT HEPATOCYTES, Strain/Indicator: THY INCORP (NON-S-PHASE), Method: AUTORADIOGRAPHY) was “active; positive”.

`CC(Oc1ccc(Oc2cnc3cc(Cl)ccc3n2)cc1)C(=O)O` (centres undefined) was tested, and the mutagenic call (Test System: Mouse lymphoma, Strain/Indicator: L5178Y (tk+/tk-), Metabolic Activation: None, Method: Suspension/plate) was “active; positive” and the mutagenic call (Test System: Mouse lymphoma, Strain/Indicator: L5178Y (tk+/tk-), Metabolic Activation: Rat, Liver, S-9, Aroclor 1254, Method: Suspension/plate) was “active; positive”.

For `CC(=O)OCN(C)[N+](=O)[O-]`, the mutagenic call [1] was “active; positive”.

In the case of `O=C(Nc1ccccc1Br)c1csc([N+](=O)[O-])c1`, the mutagenic call [2] is reported as “active; positive” and the mutagenic call [3] is reported as “active; positive”.

With `OC1C=Cc2c(cc3ccc4cccc5ccc2c3c45)C1O` (centres undefined) the mutagenic call (Test System: CHINESE HAMSTER V-79, Strain/Indicator: V-79/OUABAIN, Metabolic Activation: HAMSTER, EMBRYO, CELL-MEDIATED, Method: STANDARD PLATE) was “active; positive”.

For `Nc1nc(Cl)cc(Cl)n1`, the mutagenic call (Test System: AMES SALMONELLA TYPHIMURIUM, Strain/Indicator: TA98, Metabolic Activation: HAMSTER, LIVER, S-9, AROCLOR 1254, Method: STANDARD PLATE) was “inactive; negative”, the mutagenic call [2] was “inactive; negative” and the mutagenic call (Test System: AMES SALMONELLA TYPHIMURIUM, Strain/Indicator: TA98, Metabolic Activation: RAT, LIVER, S-9, AROCLOR 1254, Method: STANDARD PLATE) was “inactive; negative”. For the same molecule, the mutagenic call (Test System: AMES SALMONELLA TYPHIMURIUM, Strain/Indicator: TA100, Metabolic Activation: HAMSTER, LIVER, S-9, AROCLOR 1254, Method: STANDARD PLATE) was “inactive; negative”, the mutagenic call [3] was “inactive; negative” and the mutagenic call (Test System: AMES SALMONELLA TYPHIMURIUM, Strain/Indicator: TA100, Metabolic Activation: RAT, LIVER, S-9, AROCLOR 1254, Method: STANDARD PLATE) was “inactive; negative”. The mutagenic call (Test System: AMES SALMONELLA TYPHIMURIUM, Strain/Indicator: TA1535, Metabolic Activation: HAMSTER, LIVER, S-9, AROCLOR 1254, Method: STANDARD PLATE) was “inactive; negative”, the mutagenic call (Test System: AMES SALMONELLA TYPHIMURIUM, Strain/Indicator: TA1535, Metabolic Activation: NONE, Method: STANDARD PLATE) was “inactive; negative” and the mutagenic call (Test System: AMES SALMONELLA TYPHIMURIUM, Strain/Indicator: TA1535, Metabolic Activation: RAT, LIVER, S-9, AROCLOR 1254, Method: STANDARD PLATE) was “inactive; negative”. For the same molecule, the mutagenic call (Test System: AMES SALMONELLA TYPHIMURIUM, Strain/Indicator: TA1537, Metabolic Activation: HAMSTER, LIVER, S-9, AROCLOR 1254, Method: STANDARD PLATE) was “inactive; negative”, the mutagenic call (Test System: AMES SALMONELLA TYPHIMURIUM, Strain/Indicator: TA1537, Metabolic Activation: NONE, Method: STANDARD PLATE) was “inactive; negative” and the mutagenic call (Test System: AMES SALMONELLA TYPHIMURIUM, Strain/Indicator: TA1537, Metabolic Activation: RAT, LIVER, S-9, AROCLOR 1254, Method: STANDARD PLATE) was “inactive; negative”. The mutagenic call (Test System: AMES SALMONELLA TYPHIMURIUM, Strain/Indicator: TA1538, Metabolic Activation: HAMSTER, LIVER, S-9, AROCLOR 1254, Method: STANDARD PLATE) was “inactive; negative”, the mutagenic call (Test System: AMES SALMONELLA TYPHIMURIUM, Strain/Indicator: TA1538, Metabolic Activation: NONE, Method: STANDARD PLATE) was “inactive; negative” and the mutagenic call (Test System: AMES SALMONELLA TYPHIMURIUM, Strain/Indicator: TA1538, Metabolic Activation: RAT, LIVER, S-9, AROCLOR 1254, Method: STANDARD PLATE) was “inactive; negative”. The mutagenic call (Test System: MOUSE LYMPHOMA, Strain/Indicator: L5178Y (TK+/TK-), Metabolic Activation: NONE, Method: SUSPENSION/PLATE) was “active; positive. reevaluation of results: positive” and the mutagenic call (Test System: MOUSE LYMPHOMA, Strain/Indicator: L5178Y (TK+/TK-), Metabolic Activation: RAT, LIVER, S-9, AROCLOR 1254, Method: SUSPENSION/PLATE) was “active; positive. reevaluation of results: inconclusive”.

`COCCl` was tested, and the mutagenic call (End Point: IN VITRO CHROMOSOMAL ABERRATIONS, Test System: CHL CELLS, Metabolic Activation: NONE) was “active; positive (structural and ploidy changes)” and the mutagenic call (End Point: IN VITRO CHROMOSOMAL ABERRATIONS, Test System: CHL CELLS, Metabolic Activation: RAT, LIVER, S-9, SODIUM PHENOBARBITAL AND 5,6-BENZOFLAVONE) was “active; positive (structural changes)”.

In the case of `Cc1ccc([N+](=O)[O-])c(S(=O)(=O)O)c1[N+](=O)[O-]`, the mutagenic call (End Point: In vitro chromosomal aberrations, Test System: V79 Chinese hamster fibroblasts, Metabolic Activation: None) is reported as “inactive; negative”, the mutagenic call (Test System: Ames Salmonella typhimurium, Strain/Indicator: TA98, Metabolic Activation: None, Method: Standard plate) is reported as “inactive; negative” and the mutagenic call (Test System: Ames Salmonella typhimurium, Strain/Indicator: TA98, Metabolic Activation: Rat, Liver, S-9, Method: Standard plate) is reported as “inactive; negative”. For the same molecule, the mutagenic call (Test System: Ames Salmonella typhimurium, Strain/Indicator: TA100, Metabolic Activation: None, Method: Standard plate) was “inactive; negative” and the mutagenic call (Test System: Ames Salmonella typhimurium, Strain/Indicator: TA100, Metabolic Activation: Rat, Liver, S-9, Method: Standard plate) was “inactive; negative”.
